The source of these data is patent US20080248131A1 (Metaproteomics, LLC, priority 2005, published 2008).

SMILES strings stand for the structures.

For experiment [1], the system named is human PI3K-β, PI3K-γ, and PI3K-δ. Kind of experiment: PI3K isoform inhibition (Example 3). The format is biochemical. The following applies: 50 μg/ml. Here is the method:
Additionally examined was an Acacia nilotica heartwood extract. All compounds were tested at 50 μg/ml. The results are presented graphically as FIG. 3. […] Mg-IAA was approximately 3-fold more inhibitory to PI3K-β than to PI3K-γ or PI3K-δ.

For experiment [2], the system named is adiponectin secretion, 3T3-L1 adipocytes. Put plainly: Adiponectin secretion from insulin-resistant 3T3-L1 adipocytes. It is filed as cell-based, murine.
Experiment [3] has the same test system. Kind of experiment: Adiponectin secretion from TNFα-treated 3T3-L1 adipocytes. The following applies: 10 ng TNFα/ml. It is filed as cell-based, murine.
Method: 3T3-L1 cells were seeded at an initial density of 1×10^4 cells/cm^2 in 96-well plates. For two days, the cells were allowed grow to reach confluence. Following confluence, the cells were forced to differentiate into adipocytes by the addition of differentiation medium; this medium consisted of (1) 10% FBS/DMEM (high glucose); (2) 0.5 mM methylisobutylxanthine; (3) 0.5 μM dexamethasone and (4) 10 μg/ml insulin (MDI medium). From Day 3 through Day 5, the medium was changed to post-differentiation medium consisting of 10% FBS in DMEM. […] On Day 6, the supernatant medium was sampled for adiponectin determination.
Statistical Calculations and Interpretation—All assays were preformed in duplicate. […] Differences among the doses and test agents were determined using the Student's t-test without correction for multiple comparisons; the nominal five percent probability of a type I error was selected.
The test system of experiment [4] is NF-kBp65 nuclear translocation. Kind of experiment: Nuclear NF-kBp65 in TNFα-treated 3T3-L1 adipocytes. As to conditions: three or 24 hours. The format is cell-based, murine. Here is the method:
Cell Culture and Treatment—Following differentiation 3T3-L1 adipocytes were maintained in post-differentiation medium for an additional 40 days. […] Hops derivatives and the positive control pioglitazone were tested at concentrations of 2.5, and 5.0 μg/ml. Test materials were added 1 hour prior to and nuclear extracts were prepared three and 24 hours following treatment with TNFα.
ELISA—3T3-L1 adipocytes were maintained in growth media for 40 days following differentiation. Nuclear NF-kBp65 was determined using the TransAM™ NF-kB kit from Active Motif (Carlsbad, Calif.) was used with no modifications. Jurkat nuclear extracts provided in the kit were derived from cells cultured in medium supplemented with 50 ng/ml TPA (phorbol, 12-myristate, 13 acetate) and 0.5 μM calcium ionophore A23187 for two hours at 37° C. immediately prior to harvesting.
Protein assay—Nuclear protein was quantified using the Active Motif Fluorescent Protein Quantification Kit.

In experiment [5] the test system is adiponectin secretion, 3T3-L1 adipocytes. Put plainly: Adiponectin secretion in LPS/3T3-L1 adipocytes. The format is cell-based, murine.
Experiment [6] relates to IL-6 secretion, 3T3-L1 adipocytes. Put plainly: IL-6 secretion from TNFα-treated 3T3-L1 adipocytes. As to conditions: 10 ng TNFα/ml.
Experiment [7] concerns DBA/J mice. Put plainly: Collagen induced rheumatoid arthritis murine model, arthritic index. As to conditions: 10 mg/kg. It is filed as in vivo, mouse.
Method: The mice were injected intradermally on day 0 with a mixture containing 100 μg of type II collagen and 100 μg of Mycobacterium tuberculosis in squalene. A booster injection was repeated on day 21. Mice were examined on days 22-27 for arthritic signs with nonresponding mice removed from the study.
Arthritic symptomology was assessed (scored 0-4) for each paw using a arthritic index as described below. Under this arthritic index 0=no visible signs; 1=edema and/or erythema: single digit; 2=edema and or erythema: two joints; 3=edema and or erythema: more than two joints; and 4=severe arthritis of the entire paw and digits associated with ankylosis and deformity.

In the case of `COc1cc(O)c(CC=C(C)C)c(O)c1C(=O)/C=C/c1ccc(O)cc1` [xanthohumol], the “effect on PI3K isoforms, in words” value in experiment [1] is reported as “more inhibitory to PI3K-γ than to PI3K-β or PI3K-δ”.

Take `CC(C)CCC1=C(O)C(C(=O)C(C)C)=C(O)C(CCC(C)C)(CCC(C)C)C1=O` [hexahydro colupulone]: the “concentration of maximal observed adiponectin secretion” value in experiment [2] stood at 12.5 µg/mL. For `CCc1ccc(CCOc2ccc(CC3SC(=O)NC3=O)cc2)nc1` (centres unmarked) [pioglitazone], the “maximal restoration of adiponectin secretion, times the TNFα treatment” value in experiment [3] was 1.47 times. The “nuclear NF-kBp65, in words” value in experiment [4] is “did not inhibit”. Consider `CC(=O)Oc1ccccc1C(=O)O` [Aspirin, aspirin], for which the “adiponectin secretion in LPS-treated adipocytes, in words” value in experiment [5] was “failed to induce adiponectin secretion”. Turning to `COc1ccc2c(c1)c(CC(=O)O)c(C)n2C(=O)c1ccc(Cl)cc1` [indomethacin], the “IL-6 secretion in presence of TNFα, in words” value in experiment [6] was “no anti-inflammatory effect”. In the case of `O=C(O)c1ccccc1O` [salicylic acid], the “adiponectin secretion in LPS-treated adipocytes, in words” value in experiment [5] is on record as “failed to induce adiponectin secretion”. For `C[C@]12C=CC(=O)C=C1CC[C@@H]1[C@@H]2[C@@H](O)C[C@@]2(C)[C@H]1CC[C@]2(O)C(=O)CO` [prednisolone], the “days with significant reduction of arthritic index” value in experiment [7] is recorded as “days 30-42”.
